Test results from patent publication US11358962B2, “2-hetaryl imidazol[1,2-a]pyridine derivatives” (Hoffmann-La Roche Inc., priority 2013, dated 2022).
Counter-ions that a name gives are not always drawn.

The compounds below were run on native tau aggregates (assay: TAU radioligand in vitro displacement assay ([3H]T808, autoradiography on human AD brain sections)). Details: compound 10 nM, radioligand [3H]T808 10 nM.
Type: binding
In short: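 Displacement of 10 nM [3H]T808 from 10 μm human AD brain cryosections by test compounds at various concentrations, 30 min at room temperature in 50 mM Tris pH 7.4, then cold washes. Autoradiography after 5-day exposure; specific binding = ROI signal minus white-matter signal, expressed as % displacement.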

With `CNc1ccn2cc(-c3cc4ccccc4o3)nc2c1` [Example 116, N-[2-(Benzofuran-2-yl)-imidazo[1,2-a]pyridin-7-yl]-methyl-amine] as the compound, how does the “% displacement of [3H]T808 (10 nM) at 10 nM” value (“% displacement of [3H]T808” below) read?
Its value is 47%.

How did the “% displacement of [3H]T808” value turn out when `CNc1ccn2cc(-c3cc(C)nn3C)nc2c1` [Example 117, N-[2-(2,5-Dimethyl-2H-pyrazol-3-yl)-imidazo[1,2-a]pyridin-7-yl]-methyl-amine] was run?
Its value is 18%.

For `CNc1ccn2cc(-c3ccc(N4CCCCC4)cc3)nc2c1` [Example 118, Methyl-[2-(4-piperidin-1-yl-phenyl)-imidazo[1,2-a]pyridin-7-yl]-amine], which “% displacement of [3H]T808” value is on record?
Its value is 20%.

How did the “% displacement of [3H]T808” value turn out when `CNc1ccn2cc(-c3ccc4c(c3)NC(=O)CO4)nc2c1` [Example 119, 6-(7-Methylamino-imidazo[1,2-a]pyridin-2-yl)-4H-benzo[1,4]oxazin-3-one] was run?
Its value is 46%.

Which “% displacement of [3H]T808” value does the source give for `CNc1ccn2cc(-c3ccccc3O)nc2c1` [Example 120, 2-(7-Methylamino-imidazo[1,2-a]pyridin-2-yl)-phenol] here?
The value was 20%.

`CNc1ccn2cc(-c3nc4ccccc4n3C)nc2c1` [Example 121, Methyl-[2-(1-methyl-1H-benzoimidazol-2-yl)-imidazo[1,2-a]pyridin-7-yl]-amine] was tested. Which “% displacement of [3H]T808” value did it give?
Its value is 19%.

Which “% displacement of [3H]T808” value does the source give for `CNc1ccn2cc(-c3cccc(C(=O)OC)c3)nc2c1` [Example 122, Methyl 3-[7-(methylamino)imidazo[1,2-a]pyridin-2-yl]benzoate] here?
The value was 20%.

How did the “% displacement of [3H]T808” value turn out when `CNc1ccn2cc(-c3cccc(CO)c3)nc2c1` [Example 123, [3-[7-(Methylamino)imidazo[1,2-a]pyridin-2-yl]phenyl]methanol] was run?
The value was 23%.

How did the “% displacement of [3H]T808” value turn out when `FCCOc1ccc(-c2cn3ccc(NC4CC4)cc3n2)cc1` [Example 124, N-Cyclopropyl-2-[4-(2-fluoroethoxy)phenyl]imidazo[1,2-a]pyridin-7-amine] was run?
The value was 39%.

With `FCCCOc1ccc(-c2cn3ccc(N4CCC4)cc3n2)cc1` [Example 125, 7-(Azetidin-1-yl)-2-[4-(3-fluoropropoxy)phenyl]imidazo[1,2-a]pyridine] as the compound, how does the “% displacement of [3H]T808” value read?
The value was 32%.

For `CNc1ccn2cc(-c3cccnc3)nc2c1` [Example 126, Methyl-(2-pyridin-3-yl-imidazo[1,2-a]pyridin-7-yl)-amine], which “% displacement of [3H]T808” value is on record?
The value was 12%.

How did the “% displacement of [3H]T808” value turn out when `CNc1ccn2cc(-c3ccc(Cl)s3)nc2c1` [Example 127, N-[2-(5-Chloro-thiophen-2-yl)-imidazo[1,2-a]pyridin-7-yl]-methyl-amine] was run?
Its value is 26%.

For `CNc1ccn2cc(-c3cc(C)ccc3O)nc2c1` [Example 128, 4-Methyl-2-(7-methylamino-imidazo[1,2-a]pyridin-2-yl)-phenol], which “% displacement of [3H]T808” value is on record?
The value was 34%.

Which “% displacement of [3H]T808” value does the source give for `CNc1ccn2cc(-c3cnn(C)c3)nc2c1` [Example 129, Methyl-[2-(1-methyl-1H-pyrazol-4-yl)-imidazo[1,2-a]pyridin-7-yl]-amine] here?
The value was 50%.

For `CNc1ccn2cc(-c3cccc(COC)c3)nc2c1` [Example 130, 2-[3-(Methoxymethyl)phenyl]-N-methyl-imidazo[1,2-a]pyridine-7-amine HCl adduct], which “% displacement of [3H]T808” value is on record?
The value was 40%.

For `CNc1ccn2cc(-c3ccc(NCCF)cc3)nc2c1` [Example 131, 2-(4-(2-fluoroethylamino)phenyl)-N-methylimidazo[1,2-a]pyridin-7-amine], which “% displacement of [3H]T808” value is on record?
The value was 43%.

How did the “% displacement of [3H]T808” value turn out when `COc1ccc(-c2cn3ccc(NCCCF)cc3n2)cc1` [Example 132, N-(3-fluoropropyl)-2-(4-methoxyphenyl)imidazo[1,2-a]pyridin-7-amine] was run?
Its value is 38%.

How did the “% displacement of [3H]T808” value turn out when `CNc1ccn2cc(-c3cccc(OCF)c3)nc2c1` [Example 133, 2-(3-(fluoromethoxy)phenyl)-N-methylimidazo[1,2-a]pyridin-7-amine] was run?
Its value is 40%.

`COc1ccc(-c2cn3ccc(NC(C)CO)cc3n2)cc1` (centres unmarked) [Example 134, 2-(2-(4-methoxyphenyl)imidazo[1,2-a]pyridin-7-ylamino)propan-1-ol] was tested. Which “% displacement of [3H]T808” value did it give?
Its value is 21%.

With `COc1cc(-c2cn3ccc(NCCF)cc3n2)ccc1C` [Example 135, N-(2-fluoroethyl)-2-(3-methoxy-4-methylphenyl)imidazo[1,2-a]pyridin-7-amine] as the compound, how does the “% displacement of [3H]T808” value read?
The value was 14%.

How did the “% displacement of [3H]T808” value turn out when `CNc1ccn2cc(-c3cccc(SC)c3)nc2c1` [Example 136, N-methyl-2-(3-(methylthio)phenyl)imidazo[1,2-a]pyridin-7-amine] was run?
Its value is 20%.

For `CNc1ccn2cc(-c3cccc(OCCF)c3)nc2c1` [Example 137, 2-(3-(2-fluoroethoxy)phenyl)-N-methylimidazo[1,2-a]pyridin-7-amine], which “% displacement of [3H]T808” value is on record?
The value was 41%.

For `COc1ccc(-c2cn3ccc(N4CC4C)cc3n2)cc1` (centres unmarked) [Example 138, 2-(4-methoxyphenyl)-7-(2-methylaziridin-1-yl)imidazo[1,2-a]pyridine], which “% displacement of [3H]T808” value is on record?
The value was 44%.

`CNc1ccn2cc(-c3cccc(OCCCF)c3)nc2c1` [Example 139, 2-(3-(3-fluoropropoxy)phenyl)-N-methylimidazo[1,2-a]pyridin-7-amine] was tested. Which “% displacement of [3H]T808” value did it give?
The value was 5%.

For `FCCOc1cccc(-c2cn3ccc(N4CCC4)cc3n2)c1` [Example 140, 7-(azetidin-1-yl)-2-(3-(2-fluoroethoxy)phenyl)imidazo[1,2-a]pyridine], which “% displacement of [3H]T808” value is on record?
The value was 23%.

`CNc1ccn2cc(-c3ccc(N4CCC(F)CC4)cc3)nc2c1` [Example 141, 2-(4-(4-fluoropiperidin-1-yl)phenyl)-N-methylimidazo[1,2-a]pyridin-7-amine] was tested. Which “% displacement of [3H]T808” value did it give?
The value was 35%.

With `COc1cc(-c2cn3ccc(NCCF)cc3n2)ccc1O` [Example 142, 4-(7-(2-fluoroethylamino)imidazo[1,2-a]pyridin-2-yl)-2-methoxyphenol] as the compound, how does the “% displacement of [3H]T808” value read?
The value was 11%.

`FCCNc1ccn2cc(-c3ccc4c(c3)OCCO4)nc2c1` [Example 143, 2-(2,3-dihydrobenzo[b][1,4]dioxin-6-yl)-N-(2-fluoroethyl)imidazo[1,2-a]pyridin-7-amine] was tested. Which “% displacement of [3H]T808” value did it give?
Its value is 23%.

`FCCOCCOc1ccc(-c2cn3ccc(N4CCC4)cc3n2)cc1` [Example 144, 7-(azetidin-1-yl)-2-(4-(2-(2-fluoroethoxy)ethoxy)phenyl)imidazo[1,2-a]pyridine] was tested. Which “% displacement of [3H]T808” value did it give?
The value was 27%.

How did the “% displacement of [3H]T808” value turn out when `Oc1ccc(-c2cn3ccc(NCCF)cc3n2)cc1` [Example 145, 4-(7-(2-fluoroethylamino)imidazo[1,2-a]pyridin-2-yl)phenol] was run?
The value was 29%.

Which “% displacement of [3H]T808” value does the source give for `Oc1cccc(-c2cn3ccc(NCCF)cc3n2)c1` [Example 146, 3-(7-(2-fluoroethylamino)imidazo[1,2-a]pyridin-2-yl)phenol] here?
The value was 33%.

Which “% displacement of [3H]T808” value does the source give for `FCCNc1ccn2cc(-c3ccc(N4CCOCC4)cc3)nc2c1` [Example 147, N-(2-Fluoroethyl)-2-(4-morpholin-4-ylphenyl)imidazo[1,2-a]pyridin-7-amine] here?
Its value is 23%.

How did the “% displacement of [3H]T808” value turn out when `FCCCOc1ccc(-c2cn3ccc(NC4CC4)cc3n2)cc1` [Example 148, N-Cyclopropyl-2-[4-(3-fluoropropoxy)phenyl]imidazo[1,2-a]pyridin-7-amine] was run?
Its value is 20%.

`FCCNc1ccn2cc(-c3ccco3)nc2c1` [Example 149, N-(2-Fluoroethyl)-2-(furan-2-yl)imidazo[1,2-a]pyridin-7-amine] was tested. Which “% displacement of [3H]T808” value did it give?
Its value is 23%.

Each compound was assayed on tau aggregates (assay: Autoradiography of tritiated radioligands on human cortical brain sections (Braak V AD patient)). Details: radioligand 1.8 (ex. 62), 2.8 (ex. 64), 3.7 (ex. 61), 2.7 nM (ex. 63).
Type: binding
Description: The radioligand concentrations were 1.8, 2.8, 3.7 and 2.7 nM, respectively.

How did the autoradiogram staining pattern turn out when `[3H]CNc1ccn2cc(-c3ccc(OCF)cc3)nc2c1` [Example 61, [^3H]-[2-(4-Fluoromethoxy-phenyl)-imidazo[1,2-a]pyridin-7-yl]-methyl-amine] was run?
The autoradiogram staining pattern was “punctate staining of tau aggregates in a layered distribution pattern”.
